Measured values reported in patent US8404696B2, “Quinazoline-2,4-dione derivative, and medical compositions for the prophylaxis and treatment of cranial nerve disease containing the same” (Shin Poong Pharmaceutical Co., Ltd., priority 2008, dated 2013).
≈ marks a conversion by molar mass, not a printed value.

Assays:
mouse brain cells = test: Inhibitory effect on ROS production in brain cells (DCF-DA, NMDA-induced); type: cell-based; conditions: dose suppressing 50% of production of reactive oxygen compared to control, mouse brain cells; for IC50: 24 h, read-out: ROS inhibitory effect ID50
Experimental: Oxidative stress was measured to test inhibitory effects on the production of reactive oxygen species (ROS) by using DCF-DA, which is a fluorescent probe. Brain cells were obtained from brain cortex of mouse to prepare cell solution with 2×10^6 cells/ml. Each brain cell was treated with 11 μM of DCF-DA followed by reaction in 37° C., 5% CO2 incubator for an hour. After washing twice, Compound 3 was treated with a concentration of 125 μg/ml and 250 μg/ml. At the same time, 300 μM of NMDA was treated and it was incubated in 37° C., 5% CO2 incubator for 24 hours.
(§1) ROS inhibitory effect of compounds was represented to the dose suppressing 50% of production of reactive oxygen compared to control. […] The activity of superoxide dismutase (SOD) was measured by using a kit acquired in Sigma.

[1] = system: mixed culture of nerve cells-glial cells; test: Protecting effect on NMDA-induced nerve cell death (LDH release); type: cell-based, ICR mouse; conditions: 100 μM NMDA, LDH release after 24 hours
Experimental: Isolation and culture of nerve cells were performed by Choi's method (Choi, D. W. 1985, Neurosci. Lett., 58: 293-297). That is, the cortex was isolated in fetus ICR mouse that was 14 days pregnant, and then single cells were obtained from the tissue using pipette. The cells were aliquoted into 2×10^5/well density in a 24-well plate (Falcon) in which glial cells of cerebral cortex had been cultured in an incubator maintained at 37° C. with 5% CO2 for over 3 weeks. The culture medium was supplemented with MEM (minimum essential medium, Sigma), 2 mM glutamine, 21 mM glucose, 26.5 mM bicarbonate, 10% fetal bovine serum (FBS). In 3-5 days after aliquot, 10 μM Ara-C (cytosine arabinoside) was treated to suppress proliferation of neuroglia. And it was treated with 100 μM NMDA and 1 μg/mL or 2 μg/mL of each sample (compound) to induce the death of nerve cells due to excitable toxicity for 20 minutes, in 12-15 days after aliquot. Because of nerve cell death, lactate dehydrogenase (LDH) accumulated in proportion to the number of dead cells. In 24 hours after drug treatment, the amount of dehydrogenase (LDH) released to outside of cells was measured by using an […] measurement kit (CytoTox 96, Promega). After the reaction was completed, the change of absorbance depending on the amount of LDH was measured by using a microplate spectrophotometer.

[2] = system: pentylentetrazole (PTZ)-induced convulsion; test: Anti-convulsant effect, pentylentetrazole (PTZ) test; type: in vivo; conditions: 10 mg/kg intraperitoneally, PTZ 80 mg/kg subcutaneously; for mortality rate / Induction percentage of convulsion: (animals/total); for mortality rate: negative control 70(17/23); for Induction percentage of convulsion: negative control 100(23/23); for Initiation time of convulsion: negative control 5.0 ± 0.7; for Duration of convulsion: negative control 46.7 ± 3.3
Experimental: An experiment was performed by the method of Ali et al. (Ali, A. et al. 2006, Pharmacological Reports, 58: 242-245). A 10 mg/kg dose of compound was intraperitoneally administered to identify the anti-convulsant effect and the effect was observed (Table 8). Researching the process of activity was performed by the Anti-epileptic Drug Development Program (ADD) of NIH during development of the anti-convulsant drug. One of the assessed items of anti-convulsant activity in the first step of this program is the pentylentetrazole (PTZ) test. […] After 10 mg/kg of the testing drug was administered, assessment was performed by estimating the initiation time of convulsion, duration until convulsion completely disappeared and mortality rate. It was assessed as having an anti-convulsant effect when a single episode of clonic spasm was not shown over 5 seconds on at least one of the 4 laboratory animals after PTZ administration.

thoracic aorta of rats = test: Relaxing effect on thoracic aorta contracted by phenylephrine (organ bath); set-up: species or system rats of SD species; conditions: Rattus norvegicus; 67 μg/mL; phenylephrine 0.5 μM; mean n = 3; read-out: Relaxation percentage
From the text: After male rats of SD species (250-300 g) were anesthetized by inhalation of ether, their thoracic aortas were extracted and put into a Krebs buffer (mM; NaCl 118, NaHCO3 27.3, KCl 4.8, MgSO4 1.2, KH2PO4 1.0, CaCl2 1.25, glucose 11.1). 2 mm of aortic ring was made under dissecting microscope and cultured in an organ bath to measure the tension of blood vessels. The organ bath was filled with Krebs buffer and saturated with 95% O2, 5% CO2 to maintain dissolved oxygen and physiological pH. Changing of tension was measured by a tension meter (Hugo-sachs, model K30) and recorded by physiological recorder (Coulbourn polygraph). The length of the blood vessels was increased step by step to make 1.0 g of basal tension for 90 minutes. The equilibrated blood vessel was contracted by phenylephrine (0.5 μM). When the contraction furrow reached equilibrium, compounds were added, followed by observation of relaxation response.

[3] = system: superoxide dismutase (SOD); test: Increase of superoxide dismutase (SOD) activity in mouse brain cells; type: cell-based; conditions: 100 μg/ml
Experimental: as §1

SMILES | IC50 (mouse brain cells) | Inhibitory effect of cell death by NMDA-induced excitable neurotoxicity ([1]; 1 μg/ml compound) | Inhibitory effect of cell death by NMDA-induced excitable neurotoxicity ([1]; 2 μg/ml compound) | mortality rate [2] | Induction percentage of convulsion [2] | Initiation time of convulsion [2] | Duration of convulsion [2] | inhibition at 67 µg/mL (thoracic aorta of rats) | ROS inhibitory effect ID50 (mouse brain cells) | Increase of SOD activity, compared to control [3]
O=c1[nH]c2ccccc2c(=O)n1CCCCNCCCn1c(=O)[nH]c2ccccc2c1=O [Compound 7, 3-{4-[3-(2,4-dioxo-1,4-dihydro-2H-quinazolin-3-yl)propylamino]butyl}-1H-quinazoline-2,4-dione] | 17.7 ± 17.3 µg/mL (≈ 40.6 µM) | 26.0% | 39.7% | 67(4/6) % | 100(6/6) % | 3.1 ± 0.3 min | 42.9 ± 8.7 min | 56.8% | – | –
O=C(NCCCNCCCCNCCCn1c(=O)[nH]c2ccccc2c1=O)c1ccc(O)cc1 [Compound 8, N-(3-{4-[3-(2,4-dioxo-1,4-dihydro-2H-quinazolin-3-yl)propylamino]butylamino}propyl)-4-hydroxybenzamide] | 103 ± 20.4 µg/mL (≈ 220 µM) | 20.0% | 28.2% | – | – | – | – | 35.7% | – | –
CCOC(=O)N(CCCCN(CCCn1c(=O)[nH]c2ccccc2c1=O)C(C)=O)CCCn1c(=O)[nH]c2ccccc2c1=O [Compound 14, (4-{acetyl-[3-(2,4-dioxo-1,4-dihydro-2H-quinazolin-3-yl)propyl]amino}butyl)-[3-(2,4-dioxo-1,4-dihydro-2H-quinazolin-3-yl)propyl]carbanic Acid ethyl ester] | – | 18.9% | 26.9% | 0(0/6) % | 100(6/6) % | 8.5 ± 1.8 min | 2.9 ± 2.1 min | – | 90.1 ± 12.2 µg/mL | 2.7 ± 1.0
CC(=O)N(CCCCn1c(=O)[nH]c2ccccc2c1=O)CCCn1c(=O)[nH]c2ccccc2c1=O [Compound 22, N-[4-(2,4-dioxo-1,4-dihydro-2H-quinazolin-3-yl)butyl]-N-[3-(2,4-dioxo-1,4-dihydro-2H-quinazolin-3-yl)propyl]acetamide] | 172 ± 23.6 µg/mL (≈ 361 µM) | 17.0% | 14.0% | 0(0/6) % | 83(5/6) % | 15.2 ± 9.0 min | 7.0 ± 3.2 min | – | – | 3.7 ± 0.8
O=c1[nH]c2ccccc2c(=O)n1CCCNCCCNCCCn1c(=O)[nH]c2ccccc2c1=O [Compound 24, 3-(3-{3-[3-(2,4-dioxo-1,4-dihydro-2H-quinazolin-3-yl)propylamino]propylamino}propyl)-1H-quinazoline-2,4dione] | 122 ± 32.4 µg/mL (≈ 256 µM) | 27.4% | 30.3% | 50(3/3) % | 100(6/6) % | 6.1 ± 1.7 min | 35.7 ± 84 min | – | – | 6.9 ± 3.8
Cn1c(=O)n(CCCN(CCCCN(CCCn2c(=O)c3ccccc3n(C)c2=O)C(=O)OC(C)(C)C)C(=O)OC(C)(C)C)c(=O)c2ccccc21 [Compound 26, (4-{tert-butoxycarbonyl-[3-(1-methyl-2,4-dioxo-1,4-dihydro-2H-quinazolin-3-yl)propyl]amino}butyl)-[3-(1-methyl-2,4-dioxo-1,4-dihydro-2H-quinazolin-3-yl)propyl]carbamic acid tert-butyl ester] | – | 8.8% | 29.7% | 50(3/6) % | 83(5/6) % | 15.4 ± 9.0 min | 33.0 ± 9.5 min | 3.7% | – | 0.7 ± 5.7
Cn1c(=O)n(CCCNCCCCNCCCn2c(=O)c3ccccc3n(C)c2=O)c(=O)c2ccccc21 [Compound 27, 1-methyl-3-(3-{4-[3-(1-methyl-2,4-dioxo-1,4-dihydro-2H-quinazolin-3-yl)propylamino]butylamino}propyl)-1H-quinazoline-2,4-dione] | 21.9 ± 16.1 µg/mL (≈ 42.1 µM) | 33.7% | 36.0% | 50(3/6) % | 100(6/6) % | 8.4 ± 2.6 min | 35.8 ± 9.8 min | – | – | 2.4 ± 7.8
O=C1c2ccccc2C(=O)N1CCCNCCCCNCCCn1c(=O)[nH]c2ccccc2c1=O [Compound 28, 3-(3-{4-[3-(1,3-dioxo-1,3-dihydro-isoindole-2-yl)propylamino]butylamino}propyl)-1H-quinazoline-2,4-dione] | 30.9 ± 13.7 µg/mL (≈ 64.7 µM) | 23.1% | 22.4% | 0(0/6) % | 100(6/6) % | 4.8 ± 2.2 min | 26.9 ± 6.5 min | 8.3% | – | –
O=c1[nH]c2ccccc2c(=O)n1CCCNCCNCCCn1c(=O)[nH]c2ccccc2c1=O [Compound 29, 3-(3-{2-[3-(2,4-dioxo-1,4-dihydro-2H-quinazolin-3-yl)propylamino]ethylamino}propyl)-1H-quinazoline-2,4-dione] | 10.1 ± 17.3 µg/mL (≈ 21.7 µM) | 8.5% | 29.5% | 17(1/6) % | 83(5/6) % | 18.2 ± 9.1 min | 30.3 ± 11.1 min | – | – | 3.0 ± 1.1
CCCCCCn1c(=O)n(CCCNCCCCNCCCn2c(=O)c3ccccc3n(CCCCCC)c2=O)c(=O)c2ccccc21 [Compound 33, 1-hexyl-3-(3-{4-[3-(1-hexyl-2,4-dioxo-1,4-dihydro-2H-quinazolin-3-yl)propylamino]butylamino}propyl)-1H-quinazoline-2,4-dione] | 173 ± 19.7 µg/mL (≈ 261 µM) | 14.6% | 65.1% | 83(5/6) % | 100(6/6) % | 16.1 ± 2.2 min | 36.6 ± 7.6 min | 38.5% | – | –
